From US20040082558A1, “Administration of estradiol metabolites for inhibition of drug-induced nephrotoxicity” (priority 2002, published 2004)
Marks after values point to notes of the source that are not given here.

Key:
Type in all cases: in vivo, rat
[1] = system: PAN-nephropathic rats; test: Plasma testosterone radioimmunoassay; settings: 12 weeks of treatment, male rats
Description: An aliquot of mid-point blood sample drawn during the first clearance period was used for testosterone measurements. Plasma testosterone levels were determined by radioimmunoassay using a commercial kit provided by ICN Biomedicals, Inc. (Costa Mesa, Calif.) according to the protocol of the manufacturer.

[2] = system: PAN-nephropathic rats; test: Acute measurements of renal hemodynamics and excretory function at 12 weeks; settings: 12 weeks of treatment
Description: (§1) After baseline metabolic parameters were measured, animals were randomly assigned to receive subcutaneous saline (3 ml/kg; Control group, n=9) or puromycin aminonucleoside (PAN) (75 mg/kg; drug-induced nephrotoxic animals, n=26). PAN is a drug widely used to produce drug-induced nephrotoxicity in laboratory animals. Grond, J., et al., Contributions to Nephrology 60:83 (1988), the disclosure of which is incorporated herein by reference. Injections of PAN (20 mg/kg) were repeated after 2, 4, 8 and 10 weeks of treatment. Three hours after the initial injections, control animals were implanted with osmotic minipumps (model 2ML4, Alza, Palo Alto, Calif.) containing vehicle (polyethylene glycol 400, 2.5 μl/hour), whereas PAN-treated animals were implanted with osmotic minipumps containing either vehicle (PAN group, n=13) or 2-hydroxyestradiol (10 μg/kg/hour, PAN+2OHE group, n=13). Assignment to the PAN and PAN+2OHE groups was random. Six animals in the PAN group and 2 animals in the PAN+2OHE group died during the treatment, and these animals were not used in the final data analysis.
At 12 weeks into treatment, animals were anesthetized with pentobarbital (45 mg/kg i.p.) and instrumented for measurements of renal hemodynamics and excretory function. Two polyethylene (PE)-50 catheters were inserted into left jugular vein for delivery of supplemental anesthetics and saline infusion (50 μl/min), respectively. Another PE-50 catheter was inserted into left carotid artery and connected to a blood-pressure analyzer (Micro-Med., Inc., Louisville, Ky.) for continuous measurement of blood pressure and heart rate. A PE-10 catheter was inserted into the left ureter to facilitate collection of urine, and a flow probe (Model 1RB; Transonic Systems, Inc., Ithaca, N.Y.) was placed on the left renal artery for determination of renal blood flow, which was used to calculate renal vascular resistance. Next, an infusion of ^14C-inulin (0.035 μCi/20 μl saline/min) was initiated and after 60 minutes, two 30-minute clearance periods were conducted. A mid-point blood sample (300 μl) was collected and plasma and urine ^14C-inulin radioactivity was measured. Renal clearance of ^14C-inulin was calculated as an estimate of glomerular filtration rate.

[3] = system: proliferating cell nuclear antigen (PCNA); test: Glomerular immunohistochemical staining for PCNA, quantitative image analysis; settings: 12 weeks of treatment, kidney sections
Description: (§2) Animals were killed by an overdose of anesthetic and kidneys were removed and weighed. One kidney was fixed in 10% formalin buffer and the second kidney was quick-frozen in liquid nitrogen and stored at −70° C. Kidney tissue samples were sectioned and processed into paraffin blocks for light microscopy. For labeling of collagen IV, renal cortical segments (5 μm) were incubated overnight at 4° C. with rabbit anti-mouse collagen IV antibody (dilution 1/500 ) obtained from Chemicon International Inc. (Temecula, Calif.). A primary monoclonal mouse antibody ( 1/200 dilution; Dako Corporation, Carpenteria, Calif.) was used to label proliferating cell nuclear antigen (PCNA). […] Nonspecific staining was assessed by replacing the primary antibody with phosphate buffered saline. […] Immunochemical staining for collagen IV and PCNA quantitatively was done with a SAMBA 4000 image analyzer (Image Products International, Chantilly, Va.) using specialized computer software (Immuno-Analysis, version 4.1, Microsoft, Richmond, Wash.), a color video camera and a Compaq computer. […] Ten high power fields (×400) were assessed for staining density or positively marked cells for ED-1. […] Staining intensity of positive areas was also assessed (mean optical density) and a mean quick score was then calculated (mean optical density×labeling index).

[4] = system: PAN-nephropathic rats; test: Metabolic cage measurements (24-hour urine, intake, plasma) in PAN-nephropathic rats
Description: A total of thirty-five, male Sprague Dawley rats (approximately 290 grams) were used. Rats were housed in the University of Pittsburgh Medical Center animal care facility (temperature, 22° C.; light cycle, 12 hours; relative humidity, 55%). Animals were fed Pro Lab RMH 3000 rodent diet (PMI Nutrition Inc., St Louis, Mo.) and were given water ad libitum. Institutional guidelines for animal welfare were followed, and the University of Pittsburgh Institutional Animal Care and Use Committee approved experimental protocols.
Before initiating treatment, and 3, and 6 and 11 weeks into the treatments, animals were placed in metabolic cages and allowed to acclimatize for two days before conducting the 24-hour measurements of urine volume, food and water intake and urinary sodium, potassium, creatinine, and protein excretion. Tail vein blood samples were also taken for measurement of plasma sodium, potassium, albumin and creatinine. Plasma and urine samples were analyzed for sodium and potassium concentrations using a flame photometer (Model IL-943; Instrumentations Laboratory Inc., Lexington, Ma.) and for creatinine concentrations using a creatinine analyzer (Creatinine Analyzer 2, Beckman Instrument, Inc., Fullerton Calif., USA). Total urine proteins were measured by a spectrophotometric assay using bicinchoninic acid reagent (Pierce; Rockford, Ill.) and a modification of Lowry method. Lowry, O. H., et al., J. Biol. Chem. 193: 265 (1951), the disclosure of which is incorporated herein by reference.
as §1

[5] = system: ED1 positive cells; test: Immunohistochemical staining for ED1 positive cells (macrophage infiltration) in glomeruli and interstitium; settings: 12 weeks of treatment, kidney sections
Description: as §2

[6] = system: collagen IV; test: Glomerular immunohistochemical staining for collagen IV, quantitative image analysis; settings: 12 weeks of treatment, kidney sections
Description: as §2

[7] = system: PAN-treated rats; test: Mortality during 12-week treatment of PAN-treated rats
Description: as §1

C[C@]12CC[C@@H]3c4cc(O)c(O)cc4CC[C@H]3[C@@H]1CC[C@@H]2O [2-OHE, 2-hydroxyestradiol]
Plasma testosterone levels [1]: 0.91 ± 0.22 ng/mL
Blood pressure (in words) [2]: abolished PAN-induced changes in blood pressure
GFR, inulin clearance (in words) [2]: significantly attenuated PAN-induced changes in GFR
Hematocrit [2]: 30 ± 3%
Left Kidney [2]: 2.34 ± 0.09 g
Glomerular Filtration Rate ([2]; 14C-inulin clearance): 0.54 ± 0.06^b ml/min/g kidney
Body Weight ([2]; acute experiment): 353 ± 15
Mean Blood Pressure ([2]; anesthetized): 138.2 ± 4^b mm Hg
Renal Blood Flow ([2]; anesthetized): 2.80 ± 0.18 ml/min/g kidney
Renal Plasma Flow ([2]; anesthetized): 1.96 ± 0.12 ml/min/g kidney
Renal Vascular Resistance ([2]; anesthetized): 58.5 ± 4.5 mm Hg/ml/min/g kid
Urine Volume ([2]; anesthetized): 3.33 ± 0.26 μl/min/g kidney
Labeling index of glomerular immunoreactive PCNA (in words, FIG. 3) [3]: significantly reduced the labeling index of glomerular immunoreactive PCNA
Body Weight ([4]; 0 wks of treatment (baseline)): 291 ± 5 g
Creatinine Excretion ([4]; 0 wks of treatment (baseline)): 13.0 ± 1.0 mg/day
FE - K+ (fractional excretion of potassium) ([4]; 0 wks of treatment (baseline)): 11.6 ± 1.4%
FE - Na+ (fractional excretion of sodium) ([4]; 0 wks of treatment (baseline)): 0.18 ± 0.03%
Fluid Intake ([4]; 0 wks of treatment (baseline)): 5.37 ± 0.25 mL/h/kg
Food Intake ([4]; 0 wks of treatment (baseline)): 76 ± 2 g/kg/day
Plasma Cholesterol ([4]; 0 wks of treatment (baseline)): 51.2 ± 2.2 mg/dL
Potassium Excretion ([4]; 0 wks of treatment (baseline)): 7.54 ± 0.52 mEq/day/kg
Sodium Excretion ([4]; 0 wks of treatment (baseline)): 3.35 ± 0.18 mEq/day/kg
Urine Volume ([4]; 0 wks of treatment (baseline)): 1.68 ± 0.167 mL/h/kg
Creatinine Excretion ([4]; 3 wks of treatment): 10.9 ± 0.7 mg/day
FE - K+ (fractional excretion of potassium) ([4]; 3 wks of treatment): 32.1 ± 4.4 %
FE - Na+ (fractional excretion of sodium) ([4]; 3 wks of treatment): 0.50 ± 0.10%
Fluid Intake ([4]; 3 wks of treatment): 7.04 ± 0.667 mL/h/kg
Food Intake ([4]; 3 wks of treatment): 75 ± 4 g/kg/day
Plasma Cholesterol ([4]; 3 wks of treatment): 315 ± 39.3 mg/dL
Potassium Excretion ([4]; 3 wks of treatment): 12.3 ± 0.61 mEq/day/kg
Sodium Excretion ([4]; 3 wks of treatment): 5.76 ± 0.57 mEq/day/kg
Urine Volume ([4]; 3 wks of treatment): 3.62 ± 0.292 mL/h/kg
Creatinine Excretion ([4]; 6 wks of treatment): 9.8 ± 0.7 mg/day
FE - K+ (fractional excretion of potassium) ([4]; 6 wks of treatment): 17.3 ± 2.5 %
FE - Na+ (fractional excretion of sodium) ([4]; 6 wks of treatment): 0.34 ± 0.04%
Fluid Intake ([4]; 6 wks of treatment): 5.92 ± 0.5 mL/h/kg
Food Intake ([4]; 6 wks of treatment): 60 ± 5 g/kg/day
Plasma Cholesterol ([4]; 6 wks of treatment): 248.3 ± 19.3 mg/dL
Potassium Excretion ([4]; 6 wks of treatment): 9.17 ± 0.63 mEq/day/kg
Sodium Excretion ([4]; 6 wks of treatment): 4.21 ± 0.43 mEq/day/kg
Urine Volume ([4]; 6 wks of treatment): 2.99 ± 0.292 mL/h/kg
Creatinine Excretion ([4]; 11 wks of treatment): 12.8 ± 2.8 mg/day
FE - K+ (fractional excretion of potassium) ([4]; 11 wks of treatment): 29.7 ± 1.7 %
FE - Na+ (fractional excretion of sodium) ([4]; 11 wks of treatment): 0.37 ± 0.04%
Fluid Intake ([4]; 11 wks of treatment): 6.12 ± 0.583 mL/h/kg
Food Intake ([4]; 11 wks of treatment): 58 ± 6 g/kg/day
Plasma Cholesterol ([4]; 11 wks of treatment): 340.6 ± 27.3 mg/dL
Potassium Excretion ([4]; 11 wks of treatment): 8.36 ± 1.25 mEq/day/kg
Sodium Excretion ([4]; 11 wks of treatment): 3.12 ± 0.66 mEq/day/kg
Urine Volume ([4]; 11 wks of treatment): 3.44 ± 0.312 mL/h/kg
Creatinine clearance (in words, FIGS. 1B and 1C) ([4]; chronic treatment): attenuated the decline in creatinine clearance caused by PAN
Plasma creatinine levels (in words, FIG. 1A) ([4]; chronic treatment): attenuated PAN-induced increases in plasma creatinine levels
UPE corrected for creatinine clearance (UPE/CrCl; in words, FIG. 2B) ([4]; chronic treatment): this effect became even more significant
Urinary protein excretion (UPE; in words, FIG. 2A) ([4]; chronic treatment): reduced PAN-induced increases in urinary protein excretion
Number of ED1 positive cells in glomeruli and interstitium (in words, FIG. 4) [5]: significantly (P<0.001) reduced the number of inflammatory cells in glomeruli and in the interstitium
Glomerular collagen IV, labeling index (in words, FIGS. 5 and 6) [6]: significantly reduced the labeling index of glomerular immunoreactive collagen IV
Reduction of PAN-induced mortality ([7]; 2-hydroxyestradiol 10 μg/kg/hour by osmotic minipump): 66%
Animals died during the treatment ([7]; n=13 per group): 2 animals
